Source: article PMC5669199, “CM352 Reduces Brain Damage and Improves Functional Recovery in a Rat Model of Intracerebral Hemorrhage” (Journal of the American Heart Association: Cardiovascular …, 2017)
pEC50, pIC50: −log10 of the molar value.

Columns and labels:
[1] = Prothrombin time in plasma after ICH; assay type: in vivo, rat; settings: percentage of the standard value, n=3
Method: Prothrombin time (PT) and activated partial thromboplastin time (aPTT) were measured with STA‐Neoplastin R and PTT reagents (STA‐Compact, Stago, Barcelona, Spain). PT results were expressed as percentage of the standard value, and aPTT results were expressed in seconds.

[2] = tested on: apoptotic cells in perihematomal area; assay: TUNEL analysis of apoptotic cells in perihematomal area; assay type: in vivo, rat; settings: 14 days after ICH, n=3
Method: After the completion of the neuroimaging study, 14 days after ICH, animals were euthanized by an overdose of anesthetic (sevoflurane 8%) and perfused with PBS and 4% formaldehyde. The brain was removed, axially sliced (2 mm thick), fixed in 4% formaldehyde (4 hours), transferred to 20% sucrose in PBS (4°C), included in optimal cutting temperature compound (Sakura Finetek, Torrance, CA), and stored at −80°C. Slices were cut into 8‐μm‐thick slices using a cryostat (Sakura Finetek Europe BV, Leiden, The Netherlands).
Brain slices were dried at 38°C for 3 hours, and the optimal cutting temperature compound was then removed by washing the slices twice in PBS. Antigen retrieval was performed by immersion of slices in a thermal bath of citrate buffer (pH 6.0) for 20 minutes at 99°C. To detect apoptotic cells, a terminal deoxynucleotidyl transferase dUTP nick end labeling assay was performed. […] Slices were mounted (Polysciences, Eppelheim, Germany) and photographed in a Leica DMI 6000 B microscope with Leica Application Suite Advance Fluorescence software, version 1.0.0 (LAS AF; Leica Microsystems, Wetzlar, Germany).
A quantitative analysis of terminal deoxynucleotidyl transferase dUTP nick end labeling was performed using 3 animals from each group. […] Positive nuclei were counted manually.

[3] = tested on: mouse model of tail bleeding; set-up: method as in PMID 25686022; settings: CM352 0.01 mg/kg; cited from earlier work
[4] = tested on: rat model of collagenase‐induced ICH; assay: Bederson scale in ICH rat model; assay type: in vivo
Method: On the other hand, neurological deficit was evaluated with the Bederson scale,24 ranging from 0 (asymptomatic) to 8 (severe deficit), which included the following items: spontaneous movement, spontaneous rotation, spontaneous flexion of the contralateral forelimb, edge detection, turn after tail suspension, reflection of protection. Behavioral studies were performed at baseline (before surgery) and at 24 hours and 14 days after ICH during the darkness cycle. An experienced investigator, blind to treatment and neuroimaging data, analyzed the behavioral tests.

interleukin‐6 = assay: Plasma interleukin‐6 ELISA after ICH; assay type: in vivo, rat; settings: 1 mg/kg iv 1 hour after collagenase; 3 hours, P<0.05 vs control
Method: Blood samples (0.5 mL) were drawn from the tail vein before surgery, immediately after surgery, and at 1 hour, 3 hours, 24 hours, and 14 days. Citrate or EDTA plasma was obtained by centrifugation, and samples were stored at −80°C. Enzyme‐linked immunosorbent assay was used to measure interleukin‐6 (IL‐6, ref. KRC0061, Life Technologies, Thermo Fisher Scientific, Waltham, MA), cellular fibronectin (ref. MBS007311, MyBioSource, San Diego, CA), and thrombin‐antithrombin complex (Enzygnost TAT, ref. OWMG15, Siemens Healthcare, Erlangen, Germany) in plasma, as biomarkers of inflammation, cellular damage, and hypercoagulability, respectively. The intra‐assay and interassay coefficients of variation for all molecular markers were <10%.

[5] = tested on: wide panel of metalloenzymes, including cathepsins, caspases, kalikreins, and neutrophil proteases; set-up: method as in PMID 25686022; settings: cited from earlier work
MMP‐7 = target: T1, MMP‐7 (Homo sapiens, UniProt P09237); assay: MMP enzyme activity assay; assay type: biochemical; settings: read-out: MMP Inhibitory Activity (IC50), MMP‐7
T1 construct: GenScript (contract testing)
T1 sequence (P09237 95-267): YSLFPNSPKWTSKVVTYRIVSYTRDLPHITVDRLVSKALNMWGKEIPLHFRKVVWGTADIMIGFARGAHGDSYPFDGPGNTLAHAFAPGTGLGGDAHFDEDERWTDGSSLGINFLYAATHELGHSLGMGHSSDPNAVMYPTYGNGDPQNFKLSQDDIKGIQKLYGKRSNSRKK
Method: (§1) Protease stock solutions (10 mmol/L) were diluted with assay buffer to make final test solutions containing no more than 2.0% DMSO. The samples were dispensed into plates; substrate was added and read with PHERAstar PLUS (BMG Labtech, Ortenberg, Germany) plate reader.

MMP‐9 = target: T2, MMP‐9 (Homo sapiens, UniProt P14780); assay: MMP enzyme activity assay; assay type: biochemical; settings: read-out: MMP Inhibitory Activity (IC50), MMP‐9
T2 construct: GenScript (contract testing)
T2 sequence (P14780 94-707, species assumed): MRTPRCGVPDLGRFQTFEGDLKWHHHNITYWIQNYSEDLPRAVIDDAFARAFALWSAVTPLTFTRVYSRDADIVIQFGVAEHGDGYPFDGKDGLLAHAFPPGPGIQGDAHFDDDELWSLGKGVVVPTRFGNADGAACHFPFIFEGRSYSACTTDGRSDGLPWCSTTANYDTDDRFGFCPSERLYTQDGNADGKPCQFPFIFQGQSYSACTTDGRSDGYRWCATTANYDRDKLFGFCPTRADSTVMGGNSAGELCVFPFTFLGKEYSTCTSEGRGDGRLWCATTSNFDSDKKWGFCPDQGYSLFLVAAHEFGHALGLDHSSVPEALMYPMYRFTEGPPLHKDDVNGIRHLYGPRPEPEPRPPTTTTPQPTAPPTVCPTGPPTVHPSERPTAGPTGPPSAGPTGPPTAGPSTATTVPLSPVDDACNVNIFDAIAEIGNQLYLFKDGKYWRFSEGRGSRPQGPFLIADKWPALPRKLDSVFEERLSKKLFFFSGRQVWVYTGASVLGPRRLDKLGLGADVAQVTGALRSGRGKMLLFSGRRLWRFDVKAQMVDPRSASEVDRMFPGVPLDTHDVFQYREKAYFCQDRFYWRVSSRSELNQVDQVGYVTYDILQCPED
Method: as §1

MMP‐2 = target: T3, MMP‐2 (Homo sapiens, UniProt P08253); assay: MMP enzyme activity assay; assay type: biochemical; settings: read-out: MMP Inhibitory Activity (IC50), MMP‐2
T3 construct: GenScript (contract testing)
T3 sequence (P08253 110-660): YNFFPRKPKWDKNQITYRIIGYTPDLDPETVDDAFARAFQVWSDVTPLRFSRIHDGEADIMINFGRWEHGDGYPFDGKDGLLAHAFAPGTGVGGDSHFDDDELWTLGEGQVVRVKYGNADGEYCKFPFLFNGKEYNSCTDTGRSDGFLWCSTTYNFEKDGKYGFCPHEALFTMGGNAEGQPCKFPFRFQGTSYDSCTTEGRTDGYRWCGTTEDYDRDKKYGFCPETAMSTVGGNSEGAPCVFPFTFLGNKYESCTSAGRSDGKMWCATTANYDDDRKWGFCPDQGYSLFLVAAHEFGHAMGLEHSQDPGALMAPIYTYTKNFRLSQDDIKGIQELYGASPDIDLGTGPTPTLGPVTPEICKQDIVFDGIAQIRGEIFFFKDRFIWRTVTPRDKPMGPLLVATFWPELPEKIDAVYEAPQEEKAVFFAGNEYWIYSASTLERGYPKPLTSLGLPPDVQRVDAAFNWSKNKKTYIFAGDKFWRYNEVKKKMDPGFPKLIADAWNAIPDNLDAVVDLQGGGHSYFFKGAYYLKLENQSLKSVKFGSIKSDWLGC
Method: as §1

[6] = tested on: tissue‐type plasminogen activator–induced fibrinolysis in human blood; set-up: method as in PMID 25686022; settings: read-out: effective concentration to delay lysis time by 50%; cited from earlier work

## CNC(=O)c1ccc(Oc2ccc(S(=O)(=O)[C@]3(C(=O)NO)CCC4(CCNCC4)C3)cc2)cc1 [CM352, 4‐[4‐[[(3R)‐3‐(Hydroxycarbamoyl)‐8‐azaspiro[4.5]decan‐3‐yl]sulfonyl]phenoxy]‐N‐methylbenzamide]
[1]; 3 H
  PT: 62.0±2.6%
[1]; 5 H
  PT: 63.7±4.0%
[1]; 24 H
  PT: 65.1±7.6%
[1]; Basal
  PT: 62.7±5.1%
[2]
  apoptosis (TUNEL‐positive cells) in the perihematomal area versus control: No effects on apoptosis
[3]
  antihemorrhagic efficiency: more potent agent
[4]; 1 mg/kg 3 hours after collagenase, 24 hours (P<0.01) and day 14 (P<0.05) vs control
  neurological deficit (Bederson scale): better neurological function recovery
[4]; 1 mg/kg iv 1 hour after collagenase, 24 hours, P<0.01 vs control
  neurological deficit (Bederson scale): better neurological functional recovery
[4]; 1 mg/kg iv 1 hour after collagenase, day 14, P<0.01 vs control
  neurological deficit (Bederson scale): beneficial effect of CM352 also being very noticeable
interleukin‐6
  circulating IL‐6 levels: significant reduction
[5]
  off‐target effect on metalloenzyme panel: no significant effect
MMP‐7
  pIC50: 4.80
MMP‐9
  pIC50: 8.00
MMP‐2
  pIC50: 8.08
[6]
  pEC50: 9.15
